Assay results published in publication PMC8221581, “Functional Characterization of Olfactory Proteins Involved in Chemoreception of Galeruca daurica” (Frontiers in Physiology, 2021).
Where two headings read alike, the source gives them in different places.

How the values were obtained:
G. daurica antennae [1] = experiment: Electroantennogram (EAG) of dsRNA-CSP5-injected adults to host plant volatiles; set-up: species or system Galeruca daurica; conditions: dsRNA-CSP5-injected females vs dsRNA-GFP control; 10 μL of 1 mol/L odorant
Method: (§1) Two microliters of dsRNA (1,000 μg/μL) was injected into the intersegmental membrane between the fourth and fifth abdominal segments of 3-day-old adult females and males using a microinjector (Shimadzu, Japan). All the treated insects, including dsRNA-OBP15-injected, dsRNA-CSP5-injected, and dsRNA-GFP-injected, were reared under natural temperature conditions in the lab. Samples were taken 48 h later for interference efficiency measurement and electroantennogram analysis.
Electroantennograms were conducted to record the antennal responses of dsRNA-OBP15-injected, dsRNA-CSP5-injected, and dsRNA-GFP-injected to 12 plant volatiles. These odorants were dissolved in dichloromethane (HPLC grade) to make stock solutions of 1 mol/L, and dichloromethane alone served as solvent control. The antennae were cut off at the base, and the ends were removed then attached to the electrode with electrode gel. Filter paper strips (1 cm × 0.5 cm) were loaded with 10 μL of each chemical solution and then inserted into a Pasteur pipette. The tube was connected to an air stimulus controller (CS-55; SynTech). The signals were detected by a high-impedance amplifier (IDAC-2; SynTech) and analyzed using SynTech software (GC-EAD 2014 v1.2.5). The pulse duration time was 0.2 s with a stimulation interval of 30 s, and each compound was tested three times for each antenna. It was taken as the absolute value of the difference value between the maximum amplitude achieved by the odor stimulus and the baseline level. Each antenna was stimulated three times. All EAG results are presented as the mean EAG values from six female or male antennae.
The binding assay curve was fitted by GraphPad Prism 7.0, using the least squares (ordinary) fit of the second-order polynomial. Data from qPCR and EAG assays were analyzed using SPSS Statistics 17.0. T-test (P < 0.05) was used to analyze the differences among the groups.

GdauOBP1 = GdauOBP1 (Galeruca daurica, UniProt A0A1U9W4Y5); experiment: Fluorescence competitive binding assay (1-NPN reporter), recombinant GdauOBP1; conditions: for Ki: Ki = IC50/(1 + [1-NPN]/K1-NPN)
Chain of GdauOBP1 (A0A1U9W4Y5 entry or part of it): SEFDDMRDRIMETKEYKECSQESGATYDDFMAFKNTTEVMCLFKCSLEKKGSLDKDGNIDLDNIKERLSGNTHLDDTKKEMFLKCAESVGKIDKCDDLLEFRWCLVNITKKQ
Method: (§2) Fluorescence-binding assays were performed using a 970CRT spectrofluorophotometer (Hitachi, Japan). Instrument parameters were set as follows: Excitation slit of 10 nm, emission slit of 10 nm, sensitivity of 2 s, excitation wavelength of 337 nm, and scanning emission wavelength range of 350–700 nm. In order to measure the affinity of the fluorescent ligand 1-NPN (N-phenyl-1-naphthylamine) with the six recombinant proteins, the recombinant proteins were diluted to 2 μM in 50 mM Tris–HCl (pH 7.4) and added into a 1-cm light path quartz cuvette. Fluorescence values were recorded after the 1-NPN solution was added successively. The dissociation constant K1–NPN was calculated using GraphPad Prism 7.0 software.
(§3) Thirteen main volatiles of the host plant (A. mongolicum) were selected as competing ligands for the fluorescence competitive binding assays (Table 1). All ligands were purchased from Sigma-Aldrich (St. Louis, MO, United States). These ligands were dissolved in methanol (HPLC grade) to make stock solutions of 1 mM, which were added into a 2-μM protein solution with 1-NPN saturated. […] Three duplications were used in the binding experiment. The curves were fitted using Scatchard plots. The dissociation constants (Ki) of the competitive ligands were calculated based on the equation: Ki = IC50/(1 + [1−NPN]/K1−NPN), where IC50 is the concentration of a competitor that results in a 50% reduction of the initial fluorescence intensity, and [1-NPN] and K1–NPN are the free concentration of 1-NPN and the dissociation constant of the recombinant protein/1-NPN complex, respectively ([Campanacci et al., 2001]).

GdauCSP4 = GdauCSP4 (Galeruca daurica, UniProt A0A1W6GWH1); experiment: Fluorescence competitive binding assay (1-NPN reporter), recombinant GdauCSP4; conditions: for Ki: Ki = IC50/(1 + [1-NPN]/K1-NPN)
Chain of GdauCSP4 (A0A1W6GWH1 entry or part of it): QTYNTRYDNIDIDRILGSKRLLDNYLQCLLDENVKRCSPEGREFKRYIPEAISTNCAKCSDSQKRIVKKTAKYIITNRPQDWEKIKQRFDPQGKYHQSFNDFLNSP
Method: as §2, §3

GdauOBP15 = GdauOBP15 (Galeruca daurica, UniProt A0A1U9W4Z9); experiment: Fluorescence competitive binding assay (1-NPN reporter), recombinant GdauOBP15; conditions: for Ki: Ki = IC50/(1 + [1-NPN]/K1-NPN)
Chain of GdauOBP15 (A0A1U9W4Z9 entry or part of it): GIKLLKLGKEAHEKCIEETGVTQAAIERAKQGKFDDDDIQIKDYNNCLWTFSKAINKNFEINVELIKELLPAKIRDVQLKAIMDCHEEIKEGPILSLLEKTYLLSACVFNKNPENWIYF
Method: as §2, §3

GdauOBP10 = GdauOBP10 (Galeruca daurica, UniProt A0A1U9W4Z5); experiment: Fluorescence competitive binding assay (1-NPN reporter), recombinant GdauOBP10; conditions: for Ki: Ki = IC50/(1 + [1-NPN]/K1-NPN)
Chain of GdauOBP10 (A0A1U9W4Z5 entry or part of it): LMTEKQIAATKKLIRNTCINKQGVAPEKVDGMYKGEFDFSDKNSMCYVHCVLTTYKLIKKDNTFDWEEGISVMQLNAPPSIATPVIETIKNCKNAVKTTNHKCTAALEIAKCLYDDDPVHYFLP
Method: as §2, §3

GdauOBP6 = GdauOBP6 (Galeruca daurica, UniProt A0A1U9W4Z8); experiment: Fluorescence competitive binding assay (1-NPN reporter), recombinant GdauOBP6; conditions: for Ki: Ki = IC50/(1 + [1-NPN]/K1-NPN)
Chain of GdauOBP6 (A0A1U9W4Z8 entry or part of it): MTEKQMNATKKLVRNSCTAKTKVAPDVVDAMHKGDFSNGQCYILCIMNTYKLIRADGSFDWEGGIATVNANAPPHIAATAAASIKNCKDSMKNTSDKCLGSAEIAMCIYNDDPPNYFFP
Method: as §2, §3

GdauCSP5 = GdauCSP5 (Galeruca daurica, UniProt A0A1W6GWH8); experiment: Fluorescence competitive binding assay (1-NPN reporter), recombinant GdauCSP5; conditions: for Ki: Ki = IC50/(1 + [1-NPN]/K1-NPN)
Chain of GdauCSP5 (A0A1W6GWH8 entry or part of it): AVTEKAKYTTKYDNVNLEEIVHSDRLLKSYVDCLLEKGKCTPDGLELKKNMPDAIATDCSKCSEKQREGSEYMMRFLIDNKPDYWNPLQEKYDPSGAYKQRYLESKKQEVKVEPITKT
Method: as §2, §3

G. daurica antennae [2] = experiment: Electroantennogram (EAG) of dsRNA-OBP15-injected adults to host plant volatiles; set-up: species or system Galeruca daurica; conditions: dsRNA-OBP15-injected females vs dsRNA-GFP control; 10 μL of 1 mol/L odorant
Method: as §1
Electroantennograms were conducted to record the antennal responses of dsRNA-OBP15-injected, dsRNA-CSP5-injected, and dsRNA-GFP-injected to 12 plant volatiles. These odorants were dissolved in dichloromethane (HPLC grade) to make stock solutions of 1 mol/L, and dichloromethane alone served as solvent control. The antennae were cut off at the base, and the ends were removed then attached to the electrode with electrode gel. Filter paper strips (1 cm × 0.5 cm) were loaded with 10 μL of each chemical solution and then inserted into a Pasteur pipette. […] The signals were detected by a high-impedance amplifier (IDAC-2; SynTech) and analyzed using SynTech software (GC-EAD 2014 v1.2.5). […]
The binding assay curve was fitted by GraphPad Prism 7.0, using the least squares (ordinary) fit of the second-order polynomial. Data from qPCR and EAG assays were analyzed using SPSS Statistics 17.0. […]

[3] = GdauOBP1, 2 μM protein, 1-NPN saturated, 50 mM Tris–HCl pH 7.4, read-out: IC50
[4] = GdauCSP4, 2 μM protein, 1-NPN saturated, 50 mM Tris–HCl pH 7.4, read-out: IC50
[5] = GdauOBP15, 2 μM protein, 1-NPN saturated, 50 mM Tris–HCl pH 7.4, read-out: IC50
[6] = GdauOBP10, 2 μM protein, 1-NPN saturated, 50 mM Tris–HCl pH 7.4, read-out: IC50
[7] = GdauOBP6, 2 μM protein, 1-NPN saturated, 50 mM Tris–HCl pH 7.4, read-out: IC50
[8] = GdauCSP5, 2 μM protein, 1-NPN saturated, 50 mM Tris–HCl pH 7.4, read-out: IC50

| Structure (SMILES) | EAG response compared to the control (G. daurica antennae [1]) | IC50 (GdauOBP1; [3]) | Ki (GdauOBP1; GdauOBP1) | IC50 (GdauCSP4; [4]) | Ki (GdauCSP4; GdauCSP4) | IC50 (GdauOBP15; [5]) | Ki (GdauOBP15; GdauOBP15) | IC50 (GdauOBP10; [6]) | Ki (GdauOBP10; GdauOBP10) | IC50 (GdauOBP6; [7]) | Ki (GdauOBP6; GdauOBP6) | IC50 (GdauCSP5; [8]) | Ki (GdauCSP5; GdauCSP5) | IC50 (GdauOBP1) | IC50 (GdauCSP4) | IC50 (GdauOBP15) | IC50 (GdauOBP10) | IC50 (GdauOBP6) | IC50 (GdauCSP5) | other results |
| --- | --- | --- | --- | --- | --- | --- | --- | --- | --- | --- | --- | --- | --- | --- | --- | --- | --- | --- | --- | --- |
| C1=CC=CCC=C1 [1,3,5-cycloheptatriene, 1,3,5-Cycloheptatriene] | significantly lower | 63 µM | 53.8 µM | 23.4 µM | 21.2 µM | 51.7 µM | 45.6 µM | 59.9 µM | 46.2 µM | 80.5 µM | 69.2 µM | 45.5 µM | 33.5 µM | – | – | – | – | – | – | – |
| C1CSCSC1 [1,3-dithiane] | significantly lower | – | – | – | – | – | – | – | – | – | – | – | – | 70.6 µM | 18.5 µM | 57.2 µM | 59.5 µM | 36.7 µM | 50 µM | – |
| c1ccc(Nc2cccc3ccccc23)cc1 [1-NPN, N-phenyl-1-naphthylamine, reference compound] | – | – | – | – | – | – | – | – | – | – | – | – | – | – | – | – | – | – | – | Kd (GdauOBP1): 11.4 µM; Kd (GdauCSP4): 18.9 µM; Kd (GdauOBP15): 14.6 µM; Kd (GdauOBP10): 6.54 µM; Kd (GdauOBP6): 11.8 µM; Kd (GdauCSP5): 5.34 µM |
| CCCC=CC=O [2-hexenal, 2-Hexenal] | significantly lower | – | – | – | – | – | – | – | – | – | – | – | – | 95.9 µM | 17.5 µM | 41.7 µM | 85.5 µM | 33.9 µM | 34.4 µM | EAG response compared to the control (G. daurica antennae [2]): reduced significantly |
| CCC/C=C\CO [(Z)-2-hexen-1-ol, (Z)-2-Hexen-1-ol] | – | – | – | – | – | – | – | – | – | – | – | – | – | 86.4 µM | 50 µM | 76 µM | 95.6 µM | 33 µM | – | – |
| C=CCSSCC=C [Diallyl disulfide] | – | – | – | – | – | – | – | – | – | – | – | – | – | 97.1 µM | 23.5 µM | 42.3 µM | – | 72.1 µM | 61.6 µM | – |
| C=CCSCC=C [Diallyl sulfide] | – | – | – | 43.8 µM | 39.7 µM | 48.1 µM | 42.4 µM | 77.8 µM | 60.1 µM | 55 µM | 47.3 µM | 72.2 µM | 53.1 µM | – | – | – | – | – | – | – |
| CSSC [Dimethyl disulfide] | – | 64.9 µM | 55.4 µM | 23.1 µM | 21 µM | 26.2 µM | 23.1 µM | 61.9 µM | 47.8 µM | 29.9 µM | 25.7 µM | 36 µM | 26.5 µM | – | – | – | – | – | – | – |
| CSSSC [Dimethyl trisulfide] | significantly lower | 63.2 µM | 54 µM | 16.6 µM | 15 µM | 56.7 µM | 50 µM | 67.4 µM | 52.1 µM | 44.5 µM | 38.2 µM | 53.7 µM | 39.5 µM | – | – | – | – | – | – | – |
| CCCCCC=O [Hexanal] | significantly lower | – | – | – | – | – | – | – | – | – | – | – | – | 70.8 µM | 15.4 µM | 68.8 µM | 52 µM | 32.3 µM | 61.4 µM | – |
| COC(=O)c1ccccc1 [Methyl benzoate] | significantly lower | – | – | – | – | – | – | – | – | – | – | – | – | 65.4 µM | 13.3 µM | 35.9 µM | 73.9 µM | 36.4 µM | 44.3 µM | – |
| C=CC(=C)CCC=C(C)C [Myrcene] | significantly lower | 82.6 µM | 70.6 µM | – | – | – | – | – | – | 68.7 µM | 59 µM | 84.2 µM | 61.9 µM | – | – | – | – | – | – | – |
| Cc1ccc(C)cc1 [p-xylene, p-Xylene] | significantly lower | – | – | – | – | – | – | – | – | – | – | – | – | 84.7 µM | 19.7 µM | 49.9 µM | 58 µM | 72.5 µM | 55.7 µM | – |
